Experiments:
Format in all cases: physicochemical
[1] = Long term stability studies, exposure to high relative humidity; settings: 75% RH at 40 or 50° C., less protective packaging material
[2] = DVS (dynamic vapor sorption) sorption/desorption isotherms; settings: for Desorption / Sorption: DVS, 25 degrees Celsius; for XRPD after DVS: after DVS cycle at 25 degrees Celsius; for hygroscopicity classification: from DVS data at 25° C.
From the text: Anhydrous modifications A and E of ribociclib succinate were submitted to DVS analysis. The results are reported in FIGS. 14 and 15 and in Table 12.

[3] = Hydrate formation: exposure at ambient temperature at various relative humidity in a desiccator
From the text: Aliquots from ribociclib succinate Modification A were exposed in a desiccator with saturated solution of inorganic salt or drying agent to provide a range of various relative humidities.

[4] = Thermogravimetry
[5] = Conversion to dihydrate Modification HB (water activity, suspension equilibration)
[6] = relative humidity 10%, succinate
[7] = relative humidity 20%, succinate
[8] = relative humidity 30%, succinate
[9] = relative humidity 40%, succinate
[10] = relative humidity 50%, succinate
[11] = relative humidity 60%, succinate
[12] = relative humidity 70%, succinate
[13] = relative humidity 80%, succinate
[14] = relative humidity 90%, succinate
[15] = relative humidity 95%, succinate
[16] = heating rate 10 degrees Celsius per minute

SMILES	Desorption ([2]; relative humidity 0%) [wt %]	Sorption ([2]; relative humidity 0%) [wt %]	Desorption [2, 6] [wt %]	Sorption [2, 6] [wt %]	Desorption ([2]; relative humidity 20%) [wt %]	Sorption [2, 7] [wt %]	Desorption ([2]; relative humidity 30%) [wt %]	Sorption [2, 8] [wt %]	Desorption ([2]; relative humidity 40%) [wt %]	Sorption [2, 9] [wt %]	Sorption [2, 10] [wt %]	Sorption [2, 11] [wt %]	Sorption [2, 12] [wt %]	Sorption [2, 13] [wt %]	Sorption [2, 14] [wt %]	Sorption [2, 15] [wt %]	XRPD after DVS [2]	hygroscopicity classification ([2]; succinate)	loss on drying ([4]; from 30 to 180° C.)	decomposition temperature [4, 16]	other results
CN(C)C(=O)c1cc2cnc(Nc3ccc(N4CCNCC4)cn3)nc2n1C1CCCC1.O=C(O)CCC(=O)O [Modification A, 7-Cyclopentyl-2-(5-piperazin-1-yl-pyridin-2-ylamino)-7H-pyrrolo[2,3-d]pyrimidine-6-carboxylic acid dimethylamide succinate, reference compound]	0.0	0.0	0.1	0.1	0.1	0.1	0.1	0.2	0.1	0.2	0.2	0.2	0.3	0.3	0.5	0.7	No change	slightly hygroscopic	less than 0.05%	about 200 °C	physical stability (XRPD) [1]: physically unstable; maximum mass change compared to the dry state ([2]; exposed to 92% HR., 25° C.): about 0.7%; water uptake in comparison to the dry state (0% RH) ([2]; exposed to 95% RH in DVS cycle at 25° C.): about 0.7%; loss on drying by thermogravimetry ([3]; after 10 days at 92% RH, ambient temperature): 3.9%; physical stability (XRPD) ([3]; exposed to 92% RH at ambient temperature for 1 day, peaks assigned to Modification HA): some additional peaks at about 4.7, 6.4, 12.0 and 13.0 degree 2θ can be detected; conversion (XRPD) ([3]; exposed to 92% RH at ambient temperature for 10 days): complete conversion; physical stability (XRPD) ([3]; exposed up to 80% RH at ambient temperature for 1 day): physically stable; loss on drying by thermogravimetry ([3]; starting material before exposure): lower than 0.05%; behaviour at high relative humidity ([3]; sufficient amount of time at relative humidity close or higher than 92%): starts to deliquesce; water activity for conversion into dihydrate Modification HB ([5]; conversion observed in bulk at 40° C./75% RH): higher than 70 % relative humidity (RH)
CN(C)C(=O)c1cc2cnc(Nc3ccc(N4CCNCC4)cn3)nc2n1C1CCCC1.O=C(O)CCC(=O)O [Modification E, 7-Cyclopentyl-2-(5-piperazin-1-yl-pyridin-2-ylamino)-7H-pyrrolo[2,3-d]pyrimidine-6-carboxylic acid dimethylamide succinate]	0.0	0.0	0.0	0.0	0.1	0.0	0.1	0.1	0.1	0.1	0.1	0.1	0.1	0.1	0.1	0.1	No change	not hygroscopic	less than 0.05%	about 200 °C	max water uptake (mass change) ([2]; DVS cycle at 25° C.): 0.1%; water activity (aH2O) at which Modification HB is obtained ([5]; suspension equilibration at 25° C.): ≥ 0.68
CN(C)C(=O)c1cc2cnc(Nc3ccc(N4CCNCC4)cn3)nc2n1C1CCCC1 [Modification F]																					loss on drying ([4]; from 30 to 140° C.): less than 0.0%
CN(C)C(=O)c1cc2cnc(Nc3ccc(N4CCNCC4)cn3)nc2n1C1CCCC1.O.O.O=C(O)CCC(=O)O [Modification HB]	0.0	0.0			1.7		1.9		2.0								No change			about 200 °C	Desorption ([2]; relative humidity 10%): 1.2 wt %; Sorption ([2]; relative humidity 10%): 0.8 wt %; Sorption ([2]; relative humidity 20%): 1.3 wt %; Sorption ([2]; relative humidity 30%): 1.7 wt %; Sorption ([2]; relative humidity 40%): 1.9 wt %; Sorption ([2]; relative humidity 50%): 2.1 wt %; Sorption ([2]; relative humidity 60%): 2.2 wt %; Sorption ([2]; relative humidity 70%): 2.3 wt %; Sorption ([2]; relative humidity 80%): 2.4 wt %; Sorption ([2]; relative humidity 90%): 2.5 wt %; Sorption ([2]; relative humidity 95%): 2.5 wt %; mass loss on loss of water ([4]; at about 120° C.): about 5.8%; temperature of loss of water [4, 16]: about 120 °C

From patent US20250281492A1, “NEW CRYSTALLINE FORMS OF SALT OF 7-CYCLOPENTYL-2-(5-PIPERAZIN-1-YL-PYRIDIN-2-YLAMINO)-7H-PYRROLO[2,3-D]PYRIMIDINE -6-CARBOXYLIC ACID DIMETHYLAMIDE” (priority 2019, published 2025)
